Laboratory results reported in US10144929B2, “Polypeptide inhibitors of Smad3 polypeptide activities” (Mayo Foundation for Medical Education and Research, priority 2016, dated 2018).
“Also recorded” adds a separate entry of the source.

Test system: bleomycin (BLM)-induced lung fibrosis
Assay: Treatment model of bleomycin (BLM)-induced lung fibrosis
Format: in vivo, mice
Settings: for interstitial fibronectin / lung histology: daily intraperitoneal 0.5 mg/kg from day 14, day 28; for BLM induction of profibrotic genes (collagen 1, connective tissue growth factor, fibronectin), qPCR of lung tissue / total collagen production induced by bleomycin (hydroxyproline content): daily intraperitoneal from day 14, day 28; for peripheral blood oxygen saturation (SpO2) / gas exchange: 2-week treatment interval from day 14
Protocol: FIGS. 5A-D. Bleomycin (BLM)-induced lung remodeling is attenuated by TAT-SH3-2. (A) Hematoxylin and Eosin (H&E), Masson's Trichrome (MT), or fibronectin (anti-fibronectin and Hematoxylin) staining of representative paraffin-embedded lung sections from Control (saline treated) or mice challenged with BLM for 28 days and treated daily with 0.5 mg/kg TAT-SH3-2 or TAT-SH3-2M beginning 14 days following initial BLM insult (×8). (B) qPCR of the indicated genes (Col1, collagen 1; CTGF, connective tissue growth factor; FN, fibronectin) in murine lung tissue harvested on day 28 from mice challenged with BLM (+) or saline (−) and treated daily with vehicle (−; methocel/saline) or the indicated amount (μg) of TAT-SH3-2 or TAT-SH3-2M as in (A). Data reflect mean+/−sd of n=4. (C) Mice were treated with saline or BLM as in (A) and on day 14 administered daily vehicle (−) or the indicated concentration of TAT peptide. Animals were sacrificed on day 28, and hydroxyproline content was determined as described herein. Data reflect mean+/−sd of n=3. *P<0.005, **P<0.002. (D) Mice were treated as in (C), and qPCR of the indicated genes (Col Iα1 (collagen Iα1); CTGF (connective tissue growth factor); and FN (fibronectin)) were assessed in lung tissue harvested on day 28. Data reflect mean+/−sd of n=5. *P<0.005, **P<0.001.
Time-dependent fluctuation of oxygen saturation (SpO2) levels (determined on room air) in mice challenged with BLM (or saline) for 28 days and treated 1×/day with vehicle (methocel/saline), 0.5 mg/kg of TAT-SH3-2 or TAT-SH3-2M beginning 14 days after initial BLM insult. Error bars reflect SEM from n=4. (B) Time-dependent fluctuation of oxygen saturation (SpO2) levels (determined on room air) in mice challenged with BLM (or saline) for 28 days and treated 1×/day with vehicle (methocel/saline) or the indicated concentration of TAT-SH3-2 or TAT-SH3-2M beginning 14 days after initial BLM insult. Error bars reflect mean+/−sd from n=5. *P<0.05, **P<0.01.
Female 18-20 g C57 black mice (Charles River Laboratories) were administered bleomycin (BLM; 0.075 U diluted in 50 μL 0.9% normal saline) or 50 μL 0.9% normal saline alone by tracheal instillation using an intratracheal aerosolized (Penn-century, Wyndmoor, Pa.) as described elsewhere (Andrianifahanana et al., FASEB J., 27(11):4444-54 (2013)). At this time, animals were shaved around the collar region to allow monitoring of dissolved oxygen levels (every 3rd day) on room air using a MouseOX collar clip monitoring system (Starr Life Science Corp. Oakmont, Pa.). TAT-SNX9(SH3) fusion polypeptides were solubilized with DMSO and prepared by thoroughly blending with Methocel (Sigma, Louis, Mo.) at a ratio of 1:7. Mice were treated daily by intraperitoneal injection (100 μL) of a TAT-SNX9(SH3) fusion polypeptide or an equal volume of methocel/saline beginning on day 14. On day 28, mice were euthanized, lungs were dissected, and samples were prepared for immunohistochemistry and other analyses as described elsewhere (Andrianifahanana et al., FASEB J., 27(11):4444-54 (2013); Daniels et al., J. Clin. Invest., 114:1308-16 (2004); and Wang et al., FASEB J., 19:1-11 (2005)).
The Hydroxyproline Assay Kit from Sigma (St. Louis, Mo.) was used to assess total lung collagen levels. Briefly, following sacrifice lung tissue was washed in PBS, and 30 mg homogenized in 300 μL water. One hundred μL samples were hydrolyzed in 12 M HCl, and duplicate 50 μL samples were analyzed according to the manufacturer's recommendations.

Row | Substance | interstitial fibronectin | lung histology | BLM induction of profibrotic genes (collagen 1, connective tissue growth factor, fibronectin), qPCR of lung tissue | total collagen production induced by bleomycin (hydroxyproline content) | peripheral blood oxygen saturation (SpO2) / gas exchange (room air) | decrease in SpO2 during the treatment regime (room air, FIG. 6B) | BLM-induced lung remodeling (FIG. 5 title) | loss of lung function (SpO2) (animals receiving the highest concentration, FIG. 6B) | peripheral blood oxygen saturation (SpO2) / gas exchange (room air, listed as TAT-SH-2)
1 | TAT-SH3-2M: TAT-SH3-2 with G to V point mutations at amino acids 36-38; inactive TAT-SNX9 peptide unable to bind pSmad3 (TVNEGEIITITNPDVVVVWLEGRNIKGERGL; left off: small tags and cut ends) | ineffective | ineffective | but not TAT-SH3-2M, significantly reduced | ineffective | analogous decline in SpO2 | ~25% | – | – | –
2 | TAT-SH3-2: TAT-SNX9(SH3) fusion polypeptide having SNX9 amino acids 21-51 (31 mer) (TVNEGEIITITNPDVGGGWLEGRNIKGERGL; left off: small tags and cut ends) | reduced interstitial fibronectin to essentially basal levels | improved lung histology | significantly reduced | dose-dependent dimunization in total collagen production | stabilized and/or improved gas exchange; also recorded: dose-dependent improvement in gas exchange | – | attenuated | no additional loss of lung function | stabilizes lung gas exchange
